“And” between values parts separate entries of the source, which are not always exact repeats. Identical values can stand only once.
Columns and labels:
[1] = system: partial thromboplastin time (aPTT); assay: Clinical trial: partial thromboplastin time (aPTT) during ODSH infusion; type: in vivo, human; details: for aPTT: individual patients
Text: As a substantially non-anticoagulant heparinoid, ODSH can be administered at a dose that is greater than the fully anticoagulant dose of unfractionated heparin, without concern for anticoagulant effect, as shown in the Results below.
Lack of anticoagulation by ODSH was confirmed by monitoring partial thromboplastin time (aPTT) during ODSH infusion, at days 1, 3, 10, and 17 of treatment cycle 1. Normal range of aPTT is about 27 to 35 seconds+/−15%.

[2] = A2780 xenograft study: body weight; type: in vivo, athymic female mice; details: Group 2: 48 mg/kg IV QD + 24 mg/kg SC BID, individual mice, listed as PGX ODSH
Experimental: ODSH (50 mg/mL stock concentration) was made by Pyramid Laboratories, Inc. and stored at room temperature until use. As described further below, ODSH was administered either intravenously (IV), at a dose of 48 mg/kg and volume of 10 mL/kg, or subcutaneously (SC) at a dose of 24 mg/kg and volume of 5 ml/kg. Carboplatin obtained from a clinical supplier was stored at 4° C. until use. Carboplatin was administered by intraperitoneal injection (IP) at a dose of 80 mg/kg and volume of 10 mL/kg. Saline solution (0.9% NaCl) was used as a vehicle control for ODSH and administered by the same routes and in the same volumes as ODSH.
Human ovarian cancer cell line A2780 was used in the murine xenograft experiments as follows. Approximately 5×10^6 A2780 cells were used per mouse, injected subcutaneously into the right flank in 0.1 mL of 50% Matrigel/50% media. The study was initiated when tumors reached a size of 90-130 mg. 40 mice were used, 10 per treatment regimen. The mice were normal athymic female mice, aged 6-7 weeks, housed in microisolator cages and maintained under pathogen-free conditions. Tumor and body weights were measured three times per week.
Four treatment groups were studied.

[3] = system: CA19-9 (carbohydrate antigen 19-9); assay: Clinical trial: serum level of CA19-9; type: in vivo, human; details: for CA19-9 Serum levels: individual patients, ODSH adjunctive to gemcitabine and nab-paclitaxel
Experimental: (§1) Treatment consisted of a series of 28-day cycles, wherein the last day of one cycle (e.g., day 28, cycle 1) was immediately followed by the first day of the next cycle (e.g., day 1, cycle 2). In each 28-day treatment cycle, patients were dosed at days 1, 8, and 15 (three weeks of medication followed by one week of rest) as follows. First, nab-paclitaxel at 125 mg/m^2 was administered as an intravenous infusion over 30 minutes. […] Nab-paclitaxel and gemcitabine therapy was given as described in the prescribing information for Abraxane® and Gemzar®. See also, Von Hoff et al., 2011, J. Clinical Oncology 29:1-7). […]
Blood samples were also tested on day 1 of each treatment cycle for the serum level of CA19-9 (carbohydrate antigen 19-9) a marker used to assess the efficacy of the chemotherapy agents in treating pancreatic cancer. See. e.g., Maeda, 2011, Int. J. Clin. Oncol. 16(5):539-45. Reduction in the serum level of CA19-9 is indicative of chemotherapeutic efficacy against the pancreatic cancer. Tumor response and disease status was measured according to Response Evaluation Criteria in Solid Tumors (RECIST) Guidelines Version 1.1. Eur. J. Cancer, 2009, 45:228-247. A reduction of at least 30% in the sum of the diameters of target lesions (measurable lesions present at screening, up to 2 lesions per involved organ) was scored as a partial response. Patients were scored as having stable disease where the smallest sum of target lesion diameters neither decreased nor increased sufficiently to qualify as a partial response or progressive disease.

white blood cells = assay: Clinical trial, metastatic pancreatic cancer: total white blood cell count; type: in vivo, human; details: individual patients, ODSH adjunctive to gemcitabine and nab-paclitaxel
Text: Male and non-pregnant, non-lactating, female patients, aged 18 to 75, with histologically confirmed metastatic adenocarcinoma of the pancreas were enrolled in the trial. […] In addition, patients were screened for blood chemistry levels, including serum creatinine levels within normal limits, serum transaminase levels of […] the upper limit of normal, and bilirubin levels of 1.5 times the upper limit of normal […].
as §1
An initial run-in period was conducted in which ten patients were treated with the gemcitabine, nab-paclitaxel, and ODSH regimen described above. After all ten patients had completed at least one 28-day cycle, the data were reviewed and an open-label randomized study initiated, with two arms (ODSH arm and Control arm). In the ODSH arm, the dosing regimen was the same as in the run-in period (gemcitabine, nab-paclitaxel, and ODSH). In the Control arm, patients were given the same gemcitabine and nab-paclitaxel regimen as in the run-in period, but without ODSH.
Blood was drawn before treatment administration on days 1, 8, and 15 of each 28 day cycle. Platelet counts, total white blood cell counts, and absolute neutrophil counts were performed. Grading of thrombocytopenia and/or neutropenia was performed according to the following standards: […]

substantially 2-O, 3-O desulfated heparin [ODSH]
Anticoagulation as determined by partial thromboplastin time (aPTT) ([1]; 4 mg/kg bolus + 0.375 mg/kg/hr 48 h): did not result in anticoagulation | aPTT ([1]; Cycle 1 Day 1): 29 seconds (2×) and 24 seconds and 36 seconds and 33 seconds and 28 seconds and 26 seconds and 25 seconds and 27 seconds | aPTT ([1]; Cycle 1 Day 3): 28 seconds and 33 seconds (2×) and 43 seconds and 38 seconds and 31 seconds (3×) and 34 seconds | aPTT ([1]; Cycle 1 Day 10): 34 seconds (2×) and 32 seconds and 38 seconds and 35 seconds and 31 seconds (2×) and 33 seconds and 36 seconds | aPTT ([1]; Cycle 1 Day 17): 34 seconds and 28 seconds and 30 seconds (2×) and 42 seconds and 36 seconds and 33 seconds and 29 seconds | Individual weights, Day 1 Weight ([2]; Day 1 (baseline)): 22.1 g and 20.3 g and 21.0 g and 21.8 g and 21.6 g and 21.4 g and 19.8 g (2×) and 20.9 g and 19.7 g | Day 4 Weight change ([2]; Day 4): 3.6% and 1.5% and −0.5% and −1.8% and 6.5% and 1.9% and −1.0% and 5.6% and 10.0% and −2.5% | Individual weights, Day 4 Weight ([2]; Day 4): 22.9 g and 20.6 g and 20.9 g (2×) and 21.4 g and 23.0 g (2×) and 21.8 g and 19.6 g and 19.2 g | Day 6 Weight change ([2]; Day 6): 5.0% and 1.5% and 1.0% and −1.4% and 13.4% and 2.8% and 2.0% and 7.6% and 8.1% and −2.5% | Individual weights, Day 6 Weight ([2]; Day 6): 23.2 g and 20.6 g and 21.2 g and 21.5 g and 24.5 g and 22.0 g and 20.2 g and 21.3 g and 22.6 g and 19.2 g | Day 8 Weight change ([2]; Day 8): 5.0% and 5.4% and 2.9% and 2.3% and 16.2% and 5.6% (2×) and 12.1% and 6.7% and 2.0% | Individual weights, Day 8 Weight ([2]; Day 8): 23.2 g and 21.4 g and 21.6 g and 22.3 g (2×) and 25.1 g and 22.6 g and 20.9 g and 22.2 g and 20.1 g | Day 11 Weight change ([2]; Day 11): 4.5% and 10.3% and 4.8% (2×) and 4.1% and 17.6% and 8.4% and 5.6% and 14.6% and 6.1% | Individual weights, Day 11 Weight ([2]; Day 11): 23.1 g and 22.4 g and 22.0 g and 22.7 g (2×) and 25.4 g and 23.2 g and 20.9 g (2×) and 21.9 g | Day 14 Weight change ([2]; Day 14): 10.0% and 14.3% and 8.6% and 8.7% and 23.6% and 11.2% (2×) and 11.1% and 17.2% and 9.6% | Individual weights, Day 14 Weight ([2]; Day 14): 24.3 g and 23.2 g (2×) and 22.8 g and 23.7 g and 26.7 g and 23.8 g and 22.0 g and 22.9 g and 21.9 g | Day 18 Weight change ([2]; Day 18): 5.9% and 14.3% and 11.0% and 6.4% and 22.2% and 11.2% and 1.0% and 10.1% and 10.0% and 7.6% | Individual weights, Day 18 Weight ([2]; Day 18): 23.4 g and 23.2 g (2×) and 23.3 g and 26.4 g and 23.8 g and 20.0 g and 21.8 g and 23.0 g and 21.2 g | Day 21 Weight change ([2]; Day 21): 7.2% and 18.2% and 10.5% and 10.1% and 22.2% and 12.6% and 3.0% and 10.6% and 9.6% and 11.2% | Individual weights, Day 21 Weight ([2]; Day 21): 23.7 g and 24.0 g (2×) and 23.2 g and 26.4 g and 24.1 g and 20.4 g and 21.9 g (2×) and 22.9 g | Day 25 Weight change ([2]; Day 25): 19.7% and 31.0% and 9.6% and 18.2% and 14.8% | Individual weights, Day 25 Weight ([2]; Day 25): 24.3 g and 28.3 g and 21.7 g and 23.4 g and 24.0 g | Day 28 Weight change ([2]; Day 28): 23.2% and 32.9% and 15.7% and 20.2% and 15.8% | Individual weights, Day 28 Weight ([2]; Day 28): 29.0 g and 28.7 g and 22.9 g and 23.8 g and 24.2 g | Patients in whom serum CA19-9 level decreased ([3]; ODSH adjunct to gemcitabine/nab-paclitaxel): 8 of 10 | CA19-9 Serum levels ([3]; Cycle 1 Day 1): 395 U/mL and 70,086 U/mL and 2,138 U/mL and 483 U/mL and 11 U/mL and 326 U/mL and 4,775 U/mL and 125 U/mL and 6,186 U/mL and 6,275 U/mL | CA19-9 Serum levels ([3]; Cycle 2 Day 1): 490 U/mL and 22,958 U/mL and 502 U/mL and 453 U/mL and 17 U/mL and 710 U/mL and 5,934 U/mL and 71 U/mL and 4,392 U/mL and 4,018 U/mL | CA19-9 Serum levels ([3]; Cycle 3 Day 1): 251 U/mL and 10,286 U/mL and 328 U/mL and 205 U/mL and 15 U/mL and 164 U/mL and 8,529 U/mL and 27 U/mL and 2,669 U/mL and 1,433 U/mL | CA19-9 Serum levels ([3]; Cycle 4 Day 1): 108 U/mL and 288 U/mL and 110 U/mL and 20 U/mL and 69 U/mL and 9,926 U/mL and 15 U/mL and 2405 U/mL and 348 U/mL | White Blood Cell Counts (white blood cells; Cycle 1 Day 1): 6.8 ×10^3/μl blood and 7.7 ×10^3/μl blood and 7.3 ×10^3/μl blood and 5.0 ×10^3/μl blood and 4.6 ×10^3/μl blood and 6.5 ×10^3/μl blood and 5.7 ×10^3/μl blood and 8.7 ×10^3/μl blood and 6.0 ×10^3/μl blood and 7.2 ×10^3/μl blood | White Blood Cell Counts (white blood cells; Cycle 1 Day 8): 4.4 ×10^3/μl blood and 6.2 ×10^3/μl blood and 2.7 ×10^3/μl blood and 5.3 ×10^3/μl blood and 2.8 ×10^3/μl blood and 5.1 ×10^3/μl blood and 2.3 ×10^3/μl blood and 5.7 ×10^3/μl blood and 3.4 ×10^3/μl blood and 4.1 ×10^3/μl blood | White Blood Cell Counts (white blood cells; Cycle 1 Day 15): 4.2 ×10^3/μl blood and 5.1 ×10^3/μl blood and 2.1 ×10^3/μl blood and 6.0 ×10^3/μl blood and 2.0 ×10^3/μl blood and 3.2 ×10^3/μl blood and 2.7 ×10^3/μl blood (2×) and 5.4 ×10^3/μl blood and 1.5 ×10^3/μl blood | White Blood Cell Counts (white blood cells; Cycle 2 Day 1): 4.9 ×10^3/μl blood and 7.8 ×10^3/μl blood and 17.8 ×10^3/μl blood and 5.9 ×10^3/μl blood and 6.5 ×10^3/μl blood and 5.7 ×10^3/μl blood and 11.0 ×10^3/μl blood and 3.4 ×10^3/μl blood and 10.8 ×10^3/μl blood | White Blood Cell Counts (white blood cells; Cycle 2 Day 8): 10.2 ×10^3/μl blood and 4.5 ×10^3/μl blood and 4.6 ×10^3/μl blood and 2.9 ×10^3/μl blood and 6.4 ×10^3/μl blood | White Blood Cell Counts (white blood cells; Cycle 2 Day 15): 3.4 ×10^3/μl blood and 4.3 ×10^3/μl blood and 5.4 ×10^3/μl blood and 2.4 ×10^3/μl blood and 4.4 ×10^3/μl blood | White Blood Cell Counts (white blood cells; Cycle 3 Day 1): 6.0 ×10^3/μl blood and 7.6 ×10^3/μl blood and 4.8 ×10^3/μl blood and 5.8 ×10^3/μl blood | White Blood Cell Counts (white blood cells; Cycle 3 Day 8): 4.8 ×10^3/μl blood and 2.7 ×10^3/μl blood | White Blood Cell Counts (white blood cells; Cycle 3 Day 15): 4.3 ×10^3/μl blood | White Blood Cell Counts (white blood cells; Cycle 4 Day 1): 8.5 ×10^3/μl blood | White Blood Cell Counts (white blood cells; Cycle 4 Day 8): 6.0 ×10^3/μl blood | White Blood Cell Counts (white blood cells; Screen): 8.5 ×10^3/μl blood and 6.7 ×10^3/μl blood (2×) and 6.3 ×10^3/μl blood and 6.5 ×10^3/μl blood and 10.8 ×10^3/μl blood and 10.6 ×10^3/μl blood and 6.0 ×10^3/μl blood and 7.3 ×10^3/μl blood
